Source: patent publication US20250136581A1, “SUBSTITUTED TRIAZOLE DERIVATIVE, PREPARATION METHOD THEREFOR, PHARMACEUTICAL COMPOSITION THEREOF, AND USE THEREOF” (SHANGHAI SIMR BIOTECHNOLOGY CO., LTD., priority 2021, published 2025)

Experiments:
[1] = target: human α5β3γ2 receptors (α5-GABAA receptor) (Homo sapiens (Human), UniProt P18507+P31644); assay: 3H-flunitrazepam competition binding, human α5β3γ2 GABAA receptor; settings: HEK293 cell membranes, 1 nM 3H-flunitrazepam; read-out: α5-GABAAR Ki
Outline: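 HEK293 membranes stably expressing each human receptor subtype ([…]) competed against 1 nM 3H-flunitrazepam in Tris buffer, 1 h at room temperature; flumazenil defined the low-signal control. Eight-point 4-fold test-compound dilutions; GF/C filtration and scintillation counting gave IC50 by curve fitting, converted to Ki.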

human α1β3γ2 receptors = human α1β3γ2 receptors (Homo sapiens (Human), UniProt P14867+P18507); assay: 3H-flunitrazepam competition binding, human α1β3γ2 GABAA receptor; settings: HEK293 cell membranes, 1 nM 3H-flunitrazepam; read-out: Ki α1
Method: (§1) The affinity of the compound to each subtype of GABAA receptor was determined by competing for the binding of ^3H-flunitrazepam to HEK293 cells stably expressing human α1β3γ2, α2β3γ2, α3β3γ2, and α5β3γ2 receptors.
(§2) The cells were suspended in 50 mM Tris-HCl buffer (pH=7.4), homogenized 10 times on ice with a homogenizer for 20 seconds, and centrifuged at 1000 g for 10 minutes at 4° C. The supernatant was collected, and the above steps were repeated. The supernatant was centrifuged at 4° C. (33800 g; Thermo, rotor: A27-8×50) for 60 minutes, and the precipitate was resuspended in Tris buffer (50 mM Tris-HCl, 10 mM MgCl2, 0.5 mM EDTA, 10% glycerol). Protein was measured (BCA method, Pierce), and 1 mL aliquots were prepared and stored at −80° C.
(§3) The radioligand competition binding assay was performed in a 200 μL system (96-well plate) containing 100 μL of cell membrane. The concentration of ^3H-flunitrazepam was 1 nM and the concentration of the test compound was in the range of […]. Flumazenil was used as a control. 1 μL of 2 mM flumazenil (final concentration […]) was added to the low signal control well (Low control, LC), and 1 μL of DMSO was added to the high signal control well (High control, HC). The final concentration of target membrane protein was […]. All test compound sample storage solutions were 10 mM. The working concentration of the samples was to dilute all the samples to 0.2 mM with DMSO, followed by 4-fold serial gradient dilutions for a total of 8 concentration gradients. The 96-well plate was sealed with a sealing film, and then incubated on a shaker at room temperature for 1 hour. At the same time, the GF/C filter plate was soaked in soaking buffer (0.3% PEI, stored at 4° C.) for at least 0.5 hours. After the binding incubation was completed, the cells were collected onto a GF/C filter plate using a cell harvester. The plate was washed four times with washing buffer (50 mM Tris-HCl, pH 7.4, stored at 4° C.). After drying in a 50° C. oven for 1 hour, the bottom of the dried GF/C filter plate was sealed. The residual radioactivity on the filter membrane was detected using liquid scintillation counting. 50 μL of scintillation fluid was added to each well, and the plate was sealed. The readings were taken using a Microbeta2. The inhibitory activity of the test sample on the binding of ^3H-flunitrazepam to GABAA receptor membrane proteins was calculated, and the IC50 of each test sample was calculated by dose-effect curve fitting (GraphPad Prism 5 software), and the Ki of the sample was calculated from the IC50, thus evaluating the binding ability of the sample to the various subtypes of GABAA receptors.

human α2β3γ2 receptors = human α2β3γ2 receptors (Homo sapiens (Human), UniProt P18507+P47869); assay: 3H-flunitrazepam competition binding, human α2β3γ2 GABAA receptor; settings: HEK293 cell membranes, 1 nM 3H-flunitrazepam; read-out: Ki α2
Method: as §1, §2, §3

human α3β3γ2 receptors = human α3β3γ2 receptors (Homo sapiens (Human), UniProt P18507+P34903); assay: 3H-flunitrazepam competition binding, human α3β3γ2 GABAA receptor; settings: HEK293 cell membranes, 1 nM 3H-flunitrazepam; read-out: Ki α3
Method: as §1, §2, §3

[2] = target: α5-GABAA receptor (α5, β3, γ2 subunits) (Homo sapiens (Human), UniProt P18507+P31644); assay: Whole cell patch clamp, inverse agonist efficacy in HEK293 cells expressing α5-GABAA receptor; type: cell-based; settings: GABA 0.05 μM, −60 mV; for inhibition at 0.1 µM: HEK293, drug 100 nM, read-out: Compound inverse agonist efficacy %
Outline: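 Stable HEK293 line co-expressing human α5, β3, γ2 subunits; whole-cell patch clamp at −60 mV, inward current evoked by 0.05 μM GABA, then compound at 100 nM in GABA solution applied. Effect derived from leak, pre- and post-drug GABA currents.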

SMILES | Ki [1] | Ki (human α1β3γ2 receptors) | Ki (human α2β3γ2 receptors) | Ki (human α3β3γ2 receptors) | Compound inverse agonist efficacy % ([2]; drug 100 nM) | inhibition at 0.1 µM [2]
Cc1nnn(-c2ccc(C(F)F)cc2)c1COc1ccc(N2CCN3CC(C4CC4)NC(=O)[C@@H]3C2)nn1 (single isomer, unassigned) [Example 204] | 2.31 nM | 158 nM | 70.1 nM | 50.3 nM | −68.71% | –
Cc1nnn(-c2ccc(C(F)F)cc2)c1COc1ccc(N2CCNC(=O)C2)nn1 [Example 2, 4-(6-((1-(4-(Difluoromethyl)phenyl)-4-methyl-1H-1,2,3-triazol-5-yl)methoxy)pyridazin-3-yl)piperazin-2-one] | 2.15 nM | 145 nM | 19.8 nM | 28.6 nM | – | 58.8%
Cc1nnn(-c2ccc(C(F)F)cc2)c1COc1ccc(N2CC(=O)NC(=O)C2)nn1 [Example 5, 4-(6-((1-(4-(Difluoromethyl)phenyl)-4-methyl-1H-1,2,3-triazol-5-yl)methoxy)pyridazin-3-yl)piperazine-2,6-dione] | 0.96 nM | 58.1 nM | 12.9 nM | 16.8 nM | – | 54.5%
Cc1nnn(-c2ccc(C(F)F)cc2)c1COc1ccc(N2CC(=O)NC(C)(C)C2)nn1 [Example 7, 4-(6-((1-(4-(Difluoromethyl)phenyl)-4-methyl-1H-1,2,3-triazol-5-yl)methoxy)pyridazin-3-yl)-6,6-dimethylpiperazin-2-one] | 1 nM | 122 nM | 26.2 nM | 17 nM | – | –
Cc1nnn(-c2ccc(C(F)F)cc2)c1COc1ccc(N2CC(=O)NC3(CC3)C2)nn1 [Example 8, 7-(6-((1-(4-(Difluoromethyl)phenyl)-4-methyl-1H-1,2,3-triazol-5-yl)methoxy)pyridazin-3-yl)-4,7-diazaspiro[2.5]octan-5-one] | 0.89 nM | 80.5 nM | 22.2 nM | 17 nM | – | 40.4%
Cc1nnn(-c2ccc(C(F)F)cc2)c1COc1ccc(N2CCNC2=O)nn1 [Example 19, 1-(6-((1-(4-(Difluoromethyl)phenyl)-4-methyl-1H-1,2,3-triazol-5-yl)methoxy)pyridazin-3-yl)imidazolidin-2-one] | 0.52 nM | 15.8 nM | 10.4 nM | 7.34 nM | – | 53.7%
Cc1nnn(-c2ccc(C(F)F)cc2)c1COc1ccc(N2CCN(C)C(=O)C2)cn1 [Example 22, 4-(6-((1-(4-(Difluoromethyl)phenyl)-4-methyl-1H-1,2,3-triazol-5-yl)methoxy)pyridin-3-yl)-1-methylpiperazin-2-one] | 2.69 nM | 87 nM | 38.6 nM | – | – | 48.4%
Cc1nnn(-c2ccc(C(F)F)cc2)c1COc1ccc(N2CCOC2=O)nn1 [Example 23, 3-(6-((1-(4-(Difluoromethyl)phenyl)-4-methyl-1H-1,2,3-triazol-5-yl)methoxy)pyridazin-3-yl)oxazolidin-2-one] | 3.73 nM | 21.9 nM | 13.6 nM | – | – | 44.1%
Cc1nnn(-c2ccc(C(F)F)cc2)c1COc1ccc(N2CCN(C)C2=O)nn1 [Example 24, 1-(6-((1-(4-(Difluoromethyl)phenyl)-4-methyl-1H-1,2,3-triazol-5-yl)methoxy)pyridazin-3-yl)-3-methylimidazolidin-2-one] | 7.72 nM | 19.3 nM | 17 nM | – | – | –
Cc1nnn(-c2ccc(C(F)F)cc2)c1COc1ccc(N2CCN[C@H](C(=O)O)C2)nn1 [Example 27, (S)-4-(6-((1-(4-(Difluoromethyl)phenyl)-4-methyl-1H-1,2,3-triazol-5-yl)methoxy)pyridazin-3-yl)piperazine-2-carboxylic acid] | 3.65 nM | 333 nM | 107 nM | 135 nM | – | 59.1%
CCNC(=O)C1CN(c2ccc(OCc3c(C)nnn3-c3ccc(C(F)F)cc3)nn2)C1 [Example 43, 1-(6-[(1-(4-(Difluoromethyl)phenyl)-4-methyl-1H-1,2,3-triazol-5-yl)methoxy]pyridazin-3-yl)-N-ethylazetidine-3-carboxamide] | 4.49 nM | 149 nM | 72.7 nM | 18.5 nM | – | 52.2%
Cc1nnn(-c2ccc(C(F)F)cc2)c1COc1ccc(N2CCN3CCNC(=O)[C@@H]3C2)nn1 [Example 54, (S)-8-(6-((1-(4-(Difluoromethyl)phenyl)-4-methyl-1H-1,2,3-triazol-5-yl)methoxy)pyridazin-3-yl)hexahydro-2H-pyrazino[1,2-a]pyrazin-1(6H)-one] | 2.55 nM | 294 nM | 71.6 nM | 49.8 nM | – | 50.9%
Cc1nnn(-c2ccc(C(F)F)cc2)c1COc1ccc(N2CCN3CCNC(=O)[C@H]3C2)nn1 [Example 55, (R)-8-(6-((1-(4-(Difluoromethyl)phenyl)-4-methyl-1H-1,2,3-triazol-5-yl)methoxy)pyridazin-3-yl)hexahydro-2H-pyrazino[1,2-a]pyrazin-1(6H)-one] | 0.39 nM | 178 nM | 56.4 nM | 27.5 nM | – | 51.6%
Cc1nnn(-c2ccc(C(F)F)cc2)c1COc1ccc(N2CCN(CCN3CCCC3)C(=O)C2)nn1 [Example 61, 4-(6-((1-(4-(Difluoromethyl)phenyl)-4-methyl-1H-1,2,3-triazol-5-yl)methoxy)pyridazin-3-yl)-1-(2-(pyrrolidin-1-yl)ethyl)piperazin-2-one] | 2.12 nM | 126 nM | 26 nM | 13.1 nM | – | 49%
Cc1nnn(-c2ccc(C(F)F)cc2)c1COc1ccc(N2CC(=O)N3CCNCC3C2)nn1 (centres unmarked) [Example 68, 2-(6-((1-(4-(Difluoromethyl)phenyl)-4-methyl-1H-1,2,3-triazol-5-yl)methoxy)pyridazin-3-yl)hexahydro-1H-pyrazino[1,2-a]pyrazin-4-(6H)-one] | 0.84 nM | 56.9 nM | 17.1 nM | 14 nM | – | 50.5%
Cc1nnn(-c2ccc(C(F)F)cc2)c1COc1ccc(N2CCN(CCN3CCOCC3)C(=O)C2)nn1 [Example 95, 4-(6-((1-(4-(Difluoromethyl)phenyl)-4-methyl-1H-1,2,3-triazol-5-yl)methoxy)pyridazin-3-yl)-1-(2-morpholinoethyl)piperazin-2-one] | 0.67 nM | 6.23 nM | – | – | – | 51.9%
Cc1nnn(-c2ccc(C(F)F)cc2)c1COc1ccc(N2CCN3CC(C(C)C)NC(=O)[C@@H]3C2)nn1 (stereo partly drawn) [Example 200, (9aS)-8-(6-((1-(4-(Difluoromethyl)phenyl)-4-methyl-1H-1,2,3-triazol-5-yl)methoxy)pyridazin-3-yl)-3-isopropylhexahydro-2H-pyrazino[1,2-a]pyrazin-1(6H)-one] | 1.9 nM | – | – | – | – | 60.1%
Cc1nnn(-c2ccc(C(F)F)cc2)c1COc1ccc(N2CCN3C(C(C)C)CNC(=O)[C@@H]3C2)nn1 (some centres unmarked) [Example 207] | 4.92 nM | – | – | – | – | 51.9%
